From patent US6015831A, “Thiophene nitrone compounds” (Centaur Pharmaceuticals, Inc., priority 1999, dated 2000) come the findings set out here.

Some results are limits rather than exact numbers.

For one assay, the system named is synthetic Aβ(1-42). As to the kind of experiment: Inhibition of Aβ beta-pleated sheet formation (thioflavin T fluorescence). The assay is classed as biochemical. The note with it: test compound 10 μM, ThT 3 μM, PBS pH 6.0, 12 hours; stated as alternative: this 'or' IL-1β release, tested in at least one test. The text has this:
The deposition of amyloid β-peptide (Aβ) is associated with the development of Alzheimer's disease. See, for example, G. G. Glenner et al. (1984) Biochem. Biophys. Res. Commun., 120:885-890; and R. E. Tanzi (1989) Ann. Med, 21:91-94. Accordingly, compounds which effectively disrupt the formation of Aβ(1-40) or Aβ(1-42) beta-pleated sheets are potentially useful for preventing and/or reversing such amyloid deposits. Thioflavin T (ThT) is known to rapidly associate with beta-pleated sheets, particularly the aggregated fibrils of synthetic Aβ(1-42). This association gives rise to an excitation maximum at 440 nm and to an emission at 490 nm.
The experiments were performed using a CytoFluor II fluorescence plate reader having the following parameters:
Into each well was aliquoted 95 μl of ThT (3 μM) prepared in PBS (pH 6.0), 2 μL of the compound to be tested (10 μM) prepared with 0.05% of methylcellulose in PBS (pH 6.0), and 3 μL of Aβ(1-42)(3 μg) prepared with dH2 O. The fluorescence measurement began when the Aβ(1-42) was added and continued for a total of 12 hours. The percent inhibition of beta-pleated sheet formation was calculated from the relative fluorescence unit difference between aggregation in the presence and in the absence of the test compounds. Inhibition of Aβ(1-42) beta-pleated sheet formation by at least 30% compared to the controls is considered significant in this test.

In assay [1] the test system is IL-1β release, THP-1 cells. As to the kind of experiment: Reduction of β-amyloid-induced increased release of interleukin-1β in LPS-stimulated THP-1 cells (ELISA). The assay is classed as cell-based. The note with it: Homo sapiens, test compound 100 μM, LPS 0.5 μg/mL + Aβ(25-35) 5 μM, 48 hours, stated as alternative: this 'or' Aβ(1-42) sheet formation, tested in at least one test, read-out: inhibition of β-amyloid-induced increase release of interleukin-1β compared to the controls. The protocol: THP-1 cells, a human monocyte cell line from American Type Culture Collection, were grown in RPMI-1640 medium plus 10% fetal bovine serum (FBS, not heat-inactivated) in T-flasks. The medium was changed every two days by spinning down the cells (800 rpm, 5 minutes) and adding the same fresh medium. Alternatively, the cultures were maintained by supplementation with fresh medium. The cultures were maintained at a cell concentration ranging from between 1×10^5 and 1×10^6 cells/mL. Because sera may contain unknown factors which can affect macrophage/monocyte IL-1 production, the FBS was reduced to 5% for 24 hours. The FBS was further reduced to 2% over two days prior to starting each experiment. The cells were collected by centrifugation and resuspended in media containing 2% FBS. Cell numbers were calculated and cells were plated on 24-well plates (3×10^5 cells/0.6 mL/well). Cells were then treated with LPS (0.5 μg/mL) alone or in combination with Aβ peptides (5 μM). […]
1L-1β secretions into medium by LPS-stimulated THP-1 cells, in the presence or absence of amyloid peptides and a test compound, were assayed with a commercially available ELISA kit (R & D Systems). […] Color development was stopped with 2 N sulfuric acid and the optical density of the standard and the test samples was measured at 450 nm. The amount of IL-1β present in the samples were calculated based upon a standard curve. […]

Take `COc1ccc(Sc2ccc(C=[N+]([O-])C(C)(C)C)s2)cc1` [Example 1, α-[2-(4-Methoxyphenylthio)-5-thienyl]-N-tert-butylnitrone]: the “inhibition of Aβ(1-42) beta-pleated sheet formation compared to the controls” value with synthetic Aβ(1-42) was “at least 30%”. In addition, the inhibition at 100 µM in assay [1] was not below 30%.
On to `COc1ccc(Sc2ccc(C=[N+]([O-])C3CCCCC3)s2)cc1` [Example 2, α-[2-(4-Methoxyphenylthio)-5-thienyl]-N-cyclohexylnitrone], for which the “inhibition of Aβ(1-42) beta-pleated sheet formation compared to the controls” value with synthetic Aβ(1-42) is recorded as “at least 30%”. Further, in assay [1], the inhibition at 100 µM was not below 30%.

By inhibition is commonly meant the percentage by which the read-out fell short of the control.
